Results on 2 compounds are retold here after US20070093511A1, “Anhydrous Crystal Form of Valaciclovir Hydrochloride” (priority 2001, published 2007).

Data set [1] in a line: Thermogravimetric analysis (TGA). Format: physicochemical. The conditions noted are these: from 182-310° C., scan rate 10° C. per minute, associated with melting/decomposition. On the procedure:
Thermogravimetric analysis was carried out on a Perkin-Elmer Pyris-1 TGA system. Scan rate of 10° C. per minute. Sample size 3.757 mg. The TGA trace is provided at FIG. 6. Weight loss from 182-310° C.=42.97% w/w associated with melting/decomposition

The nature of data set [2]: Water content by Karl Fischer titration. Format: physicochemical. As to conditions: Example 11 analysis. The protocol: The water of hydration content is measured by the Karl Fischer method which is well known in the art and is described in the 1990 US Pharmacopoeia at pages 1619-1621, and the European Pharmacopoeia, second edition (1992) part 2, sixteenth fascicule at v. 3.5-6.1. Water content (by Karl Fisher titration): 0.61% w/w

A short description of data set [3]: Stability and hygroscopicity of the crystal form (stated, no method). Format: physicochemical. The conditions noted are these: stated as advantage.
The conditions of data set [4]: compared with acyclovir; cited from earlier work.

Molecules are shown by their SMILES. Structures can show the parent of a compound that is named as a salt.

In the case of `CC(C)[C@H](N)C(=O)OCCOCn1cnc2c(=O)[nH]c(N)nc21` [Form 2 Valaciclovir Hydrochloride, valaciclovir hydrochloride], in data set [1], the Weight loss is 42.97 % w/w. In data set [2], the “Water content (by Karl Fisher titration)” value was found to be 0.61 % w/w. Further, in data set [3], the Hygroscopicity entry was “essentially non-hygroscopic” and the “Stability of crystal form” value is recorded as “stable”.

On to `CC(C)[C@H](N)C(=O)OCCOCn1cnc2c(=O)[nH]c(N)nc21` [valaciclovir], for which the Bioavailability result in data set [4] was “much improved bioavailability”.
